Tests used:
[1] = tested on: IL-17A-induced G-CSF production in human normal keratinocyte (NHK); assay: NHK assay: IL-17A-induced G-CSF production in normal human keratinocytes; type: cell-based; conditions: Homo sapiens, Keratinocyte, 24 h, IL-17A 5 ng/mL, G-CSF by HTRF, average if tested more than once
Procedure, shortened: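 Compound titrations are first mixed with recombinant human IL-17A for 1 h at room temperature. The mixture goes onto adult normal human keratinocytes (final IL-17A 5 ng/mL, 5% FBS, 0.2% DMSO) for 24 h at 37 °C. Secreted G-CSF is then measured by HTRF and IC50 fitted.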

[2] = molecular target: IL-17A(FLAG-Tagged): IL-17RA(His-Tagged) binding (Homo sapiens, UniProt Q16552, K93Q); assay: IL-17A(FLAG-tagged):IL-17RA(His-tagged) binding disruption Eu-HTRF assay, Protocol 2; conditions: FLAG-IL-17A 1 nM; average if tested more than once
Chain of UniProt Q16552 (Q16552 with tags, fused parts or gaps K93Q): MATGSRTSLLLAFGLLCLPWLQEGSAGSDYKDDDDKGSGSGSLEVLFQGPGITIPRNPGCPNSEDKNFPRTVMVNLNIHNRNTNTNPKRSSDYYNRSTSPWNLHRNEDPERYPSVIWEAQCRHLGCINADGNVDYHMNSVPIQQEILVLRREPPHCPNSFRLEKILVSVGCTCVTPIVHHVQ
Procedure, shortened: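 FLAG-tagged IL-17A (1 nM final) was preincubated with compound (2-fold serial dilutions, 22 points) for 1 h at rt in PBS + 0.01% Triton X-100. 10×His-IL-17RA, Eu-anti-FLAG and D2-anti-His in buffer containing KF were then added for 2 h at rt. IC50 came from the 665/615 nm HTRF ratio fitted to a one-site competition model.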

SMILES	IC50 [2] [µM]	IC50 [1] [µM]
[2H]C1([2H])NC(=O)N([C@H](COC2CC2)c2cnn3cc([C@@H](NC(=O)c4nonc4C(F)F)C4CCC(F)(F)CC4)nc3c2)C([2H])([2H])C1(F)F [Example 82, N—((S)-(7-((S)-2-Cyclopropoxy-1-(5,5-difluoro-2-oxotetrahydropyrimidin-1(2H)-yl-4,4,6,6-d4)ethyl)imidazo[1,2-b]pyridazin-2-yl)(4,4-difluorocyclohexyl)methyl)-4-(difluoromethyl)-1,2,5-oxadiazole-3-carboxamide]	< 0.05	< 0.05
[2H]C1([2H])NC(=O)N([C@H](COC)c2cnn3cc([C@H](CCC(C)(C)C(F)(F)F)NC(=O)c4nonc4C(F)(F)F)nc3c2)C([2H])([2H])C1(F)F [Example 83, N—((S)-1-(7-((S)-1-(5,5-Difluoro-2-oxotetrahydropyrimidin-1(2H)-yl-4,4,6,6-d4)-2-methoxyethyl)imidazo[1,2-b]pyridazin-2-yl)-5,5,5-trifluoro-4,4-dimethylpentyl)-4-(trifluoromethyl)-1,2,5-oxadiazole-3-carboxamide]	< 0.05	< 0.05
COC[C@H](c1cnn2cc([C@@H](NC(=O)c3nonc3C(F)(F)F)C3CCC(F)(F)CC3)nc2c1)N1CC(F)(F)CNC1=O [Example 84, N—((S)-(7-((S)-1-(5,5-Difluoro-2-oxotetrahydropyrimidin-1(2H)-yl)-2-methoxyethyl)imidazo[1,2-b]pyridazin-2-yl)(4,4-difluorocyclohexyl)methyl)-4-(trifluoromethyl)-1,2,5-oxadiazole-3-carboxamide]	< 0.05	< 0.05
O=C(N[C@H](c1cn2ncc([C@@H](C(F)F)N3CC(F)(F)CNC3=O)cc2n1)C1CCC(F)(F)CC1)c1nonc1C1CC1 [Example 89, 4-Cyclopropyl-N—((S)-(7-((S)-1-(5,5-difluoro-2-oxotetrahydropyrimidin-1(2H)-yl)-2,2-difluoroethyl)imidazo[1,2-b]pyridazin-2-yl)(4,4-difluorocyclohexyl)methyl)-1,2,5-oxadiazole-3-carboxamide]	< 0.05	< 0.05
COC[C@H](c1cnn2cc([C@@H](NC(=O)c3nonc3C)C(C3CC3)C3CC3)nc2c1)N1CC(F)(F)CNC1=O [Example 102, N—((S)-2,2-Dicyclopropyl-1-(7-((S)-1-(5,5-difluoro-2-oxotetrahydropyrimidin-1(2H)-yl)-2-methoxyethyl)imidazo[1,2-b]pyridazin-2-yl)ethyl)-4-methyl-1,2,5-oxadiazole-3-carboxamide]	< 0.05	< 0.05
COC[C@H](c1cnn2cc([C@@H](NC(=O)c3nonc3C3CC3)C(C3CC3)C3CC3)nc2c1)N1CC(F)(F)CNC1=O [Example 103, 4-Cyclopropyl-N—((S)-2,2-dicyclopropyl-1-(7-((S)-1-(5,5-difluoro-2-oxotetrahydropyrimidin-1(2H)-yl)-2-methoxyethyl)imidazo[1,2-b]pyridazin-2-yl)ethyl)-1,2,5-oxadiazole-3-carboxamide]	< 0.05	< 0.05
COC[C@H](c1cnn2cc([C@@H](NC(=O)c3nocc3CC(F)(F)F)C3CCC(F)(F)CC3)nc2c1)N1CC(F)(F)CNC1=O [Example 106, N—((S)-(7-((S)-1-(5,5-Difluoro-2-oxotetrahydropyrimidin-1(2H)-yl)-2-methoxyethyl)imidazo[1,2-b]pyridazin-2-yl)(4,4-difluorocyclohexyl)methyl)-4-(2,2,2-trifluoroethyl)isoxazole-3-carboxamide]	< 0.05	< 0.05
[2H]C1([2H])NC(=O)N([C@H](COC2CC2)c2cnn3cc([C@@H](NC(=O)c4nocc4CC(F)(F)F)C4CCC(F)(F)CC4)nc3c2)C([2H])([2H])C1(F)F [Example 107, N—((S)-(7-((S)-2-Cyclopropoxy-1-(5,5-difluoro-2-oxotetrahydropyrimidin-1(2H)-yl-4,4,6,6-d4)ethyl)imidazo[1,2-b]pyridazin-2-yl)(4,4-difluorocyclohexyl)methyl)-4-(2,2,2-trifluoroethyl)isoxazole-3-carboxamide]	< 0.05	< 0.05
COC[C@H](c1cnn2cc([C@@H](NC(=O)c3nonc3OC)C3CCC(F)(F)CC3)nc2c1)N1CC(F)(F)CNC1=O [Example 108, N—((S)-(7-((S)-1-(5,5-Difluoro-2-oxotetrahydropyrimidin-1(2H)-yl)-2-methoxyethyl)imidazo[1,2-b]pyridazin-2-yl)(4,4-difluorocyclohexyl)methyl)-4-methoxy-1,2,5-oxadiazole-3-carboxamide]	< 0.05	< 0.05

Further lines, with some results ahead:

IC50 [2] [µM]	SMILES	IC50 [1] [µM]
< 0.05	COC[C@H](c1cnn2cc([C@H](CCC(C)(C)C(F)(F)F)NC(=O)c3nonc3OC)nc2c1)N1CC(F)(F)CNC1=O [Example 109, N—((S)-1-(7-((S)-1-(5,5-Difluoro-2-oxotetrahydropyrimidin-1(2H)-yl)-2-methoxyethyl)imidazo[1,2-b]pyridazin-2-yl)-5,5,5-trifluoro-4,4-dimethylpentyl)-4-methoxy-1,2,5-oxadiazole-3-carboxamide]	< 0.05
< 0.05	COC[C@H](c1cnn2cc([C@H](CCC(C)(C)C(F)(F)F)NC(=O)c3nonc3C(F)F)nc2c1)N1CC(F)(F)CNC1=O [Example 110, N—((S)-1-(7-((S)-1-(5,5-Difluoro-2-oxotetrahydropyrimidin-1(2H)-yl)-2-methoxyethyl)imidazo[1,2-b]pyridazin-2-yl)-5,5,5-trifluoro-4,4-dimethylpentyl)-4-(difluoromethyl)-1,2,5-oxadiazole-3-carboxamide]	< 0.05
< 0.05	COC[C@H](c1cnn2cc([C@H](CCC(C)(C)C(F)(F)F)NC(=O)c3ncnn3C(C)C)nc2c1)N1CC(F)(F)CNC1=O [Example 111, N—((S)-1-(7-((S)-1-(5,5-Difluoro-2-oxotetrahydropyrimidin-1(2H)-yl)-2-methoxyethyl)imidazo[1,2-b]pyridazin-2-yl)-5,5,5-trifluoro-4,4-dimethylpentyl)-1-isopropyl-1H-1,2,4-triazole-5-carboxamide]	< 0.05
< 0.05	[2H]C1([2H])NC(=O)N([C@H](COC)c2cnn3cc([C@H](CCC(C)(C)C(F)(F)F)NC(=O)c4ncnn4C(C)C)nc3c2)C([2H])([2H])C1(F)F [Example 112, N—((S)-1-(7-((S)-1-(5,5-Difluoro-2-oxotetrahydropyrimidin-1(2H)-yl-4,4,6,6-d4)-2-methoxyethyl)imidazo[1,2-b]pyridazin-2-yl)-5,5,5-trifluoro-4,4-dimethylpentyl)-1-isopropyl-1H-1,2,4-triazole-5-carboxamide]	0.05 to 0.1
< 0.05	COc1nonc1C(=O)N[C@@H](CCC(C)(C)C(F)(F)F)c1cn2ncc(CN3CC(F)(F)CNC3=O)cc2n1 [Example 113, (S)—N-(1-(7-((5,5-Difluoro-2-oxotetrahydropyrimidin-1(2H)-yl)methyl)imidazo[1,2-b]pyridazin-2-yl)-5,5,5-trifluoro-4,4-dimethylpentyl)-4-methoxy-1,2,5-oxadiazole-3-carboxamide]	< 0.05
< 0.05	CC(C)(CC[C@H](NC(=O)c1nonc1C1CC1)c1cn2ncc(CN3CC(F)(F)CNC3=O)cc2n1)C(F)(F)F [Example 114, (S)-4-Cyclopropyl-N-(1-(7-((5,5-difluoro-2-oxotetrahydropyrimidin-1(2H)-yl)methyl)imidazo[1,2-b]pyridazin-2-yl)-5,5,5-trifluoro-4,4-dimethylpentyl)-1,2,5-oxadiazole-3-carboxamide]	< 0.05
< 0.05	Cc1nonc1C(=O)N[C@@H](CCC(C)(C)C(F)(F)F)c1cn2ncc(CN3CC(F)(F)CNC3=O)cc2n1 [Example 115, (S)—N-(1-(7-((5,5-Difluoro-2-oxotetrahydropyrimidin-1(2H)-yl)methyl)imidazo[1,2-b]pyridazin-2-yl)-5,5,5-trifluoro-4,4-dimethylpentyl)-4-methyl-1,2,5-oxadiazole-3-carboxamide]	0.05 to 0.1
< 0.05	COc1nonc1C(=O)N[C@@H](CCC(C)(C)C(F)(F)F)c1cn2ncc([C@@H](COC3CC3)N3CC(F)(F)CNC3=O)cc2n1 [Example 122, N—((S)-1-(7-((S)-2-Cyclopropoxy-1-(5,5-difluoro-2-oxotetrahydropyrimidin-1(2H)-yl)ethyl)imidazo[1,2-b]pyridazin-2-yl)-5,5,5-trifluoro-4,4-dimethylpentyl)-4-methoxy-1,2,5-oxadiazole-3-carboxamide]	< 0.05
< 0.05	COC[C@H](c1cnn2cc([C@@H](NC(=O)c3nonc3C)C3CCC(F)(F)CC3)nc2c1)N1CC(F)(F)C(F)(F)CNC1=O [Example 123, N—((S)-(4,4-Difluorocyclohexyl)(7-((S)-2-methoxy-1-(5,5,6,6-tetrafluoro-2-oxo-1,3-diazepan-1-yl)ethyl)imidazo[1,2-b]pyridazin-2-yl)methyl)-4-methyl-1,2,5-oxadiazole-3-carboxamide]	0.05 to 0.1
< 0.05	COC[C@H](c1cnn2cc([C@@H](NC(=O)c3nonc3OC)C3CCC(F)(F)CC3)nc2c1)N1CC(F)(F)C(F)(F)CNC1=O [Example 124, N—((S)-(4,4-Difluorocyclohexyl)(7-((S)-2-methoxy-1-(5,5,6,6-tetrafluoro-2-oxo-1,3-diazepan-1-yl)ethyl)imidazo[1,2-b]pyridazin-2-yl)methyl)-4-methoxy-1,2,5-oxadiazole-3-carboxamide]	0.05 to 0.1
